PMC9939304 (Acta Pharmaceutica Sinica. B, 2022)
Like-named read-outs stand apart in the source and are kept apart here. Marks after values point to notes of the source that are not given here. Blank lines part the entries; values can stand above or below the compound they belong to.

Key:
Oct2/3 [1] = conditions: Sham rats
Oct2/3 [2] = target: T1, Oct2/3 (Rattus norvegicus, UniProt Q9R0W2); conditions: corticosterone 5 mg/kg ip, normal rats; iv metformin 10 mg/kg
T1 sequence (Q9R0W2 1-555): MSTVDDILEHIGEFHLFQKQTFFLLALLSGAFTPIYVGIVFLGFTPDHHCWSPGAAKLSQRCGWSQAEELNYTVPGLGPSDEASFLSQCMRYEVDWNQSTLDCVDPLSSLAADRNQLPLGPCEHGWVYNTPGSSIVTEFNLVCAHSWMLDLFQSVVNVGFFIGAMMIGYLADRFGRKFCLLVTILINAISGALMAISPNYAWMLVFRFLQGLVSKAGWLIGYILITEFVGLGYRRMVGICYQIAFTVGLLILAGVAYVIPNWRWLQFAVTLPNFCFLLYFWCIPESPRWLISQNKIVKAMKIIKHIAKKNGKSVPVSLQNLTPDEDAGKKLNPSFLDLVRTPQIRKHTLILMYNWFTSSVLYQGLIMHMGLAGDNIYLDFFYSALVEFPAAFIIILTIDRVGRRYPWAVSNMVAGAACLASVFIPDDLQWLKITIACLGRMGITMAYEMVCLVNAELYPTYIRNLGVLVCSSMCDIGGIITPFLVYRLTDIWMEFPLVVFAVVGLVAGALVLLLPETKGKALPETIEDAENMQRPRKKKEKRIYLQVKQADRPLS

OCT2 protein [3] = assay: OCT2 protein expression in Caco-2 cells; assay type: cell-based, human; conditions: 48 h; for Expressions of OCT2 protein, 5 bile salts tested: CDCA 100, CA 100, DCA 50, HDCA 100, GCA 100 μmol/L; for Expressions of OCT2 protein by FXR agonists: CDCA 100, bilirubin 50, GW4064 1 μmol/L
FXR [4] = target: T2, FXR (Homo sapiens, UniProt Q96RI1); assay type: cell-based; conditions: HK-2 cells
T2 sequence (Q96RI1 1-486): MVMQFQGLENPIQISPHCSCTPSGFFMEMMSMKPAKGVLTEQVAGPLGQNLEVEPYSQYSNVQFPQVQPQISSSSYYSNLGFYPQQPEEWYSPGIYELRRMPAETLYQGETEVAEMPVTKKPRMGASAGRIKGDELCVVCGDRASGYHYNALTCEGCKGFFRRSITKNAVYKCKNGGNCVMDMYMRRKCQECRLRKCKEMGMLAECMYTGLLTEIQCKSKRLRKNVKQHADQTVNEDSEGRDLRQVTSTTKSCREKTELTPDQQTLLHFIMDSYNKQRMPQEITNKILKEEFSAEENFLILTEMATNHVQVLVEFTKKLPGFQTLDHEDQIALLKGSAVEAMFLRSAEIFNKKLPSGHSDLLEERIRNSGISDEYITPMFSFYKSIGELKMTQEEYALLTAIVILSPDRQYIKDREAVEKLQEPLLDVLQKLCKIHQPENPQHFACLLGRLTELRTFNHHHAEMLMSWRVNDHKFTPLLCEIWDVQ

Oct1 protein [5] = assay: Oct1 protein expression in primarily cultured rat hepatocytes; assay type: cell-based; conditions: for Expressions of Oct1 protein: CDCA, bilirubin or GW4064
OCT1 protein [6] = assay: OCT1 protein expression in HepG2 cells; assay type: cell-based, human; conditions: for Concentration-dependent effect on expressions of OCT1 protein: 48 h, CDCA 25, 50, 100 μmol/L, bilirubin 1, 10, 50 μmol/L
OCT2 protein [7] = assay: OCT2 protein expression in HK-2 cells; assay type: cell-based, human; conditions: 48 h; for Expressions of OCT2 protein by FXR agonists: CDCA 100, bilirubin 50, GW4064 1 μmol/L
Oct2 protein [8] = assay: Oct2 protein expression in primarily cultured rat hepatocytes; assay type: cell-based; conditions: for Expressions of Oct2 protein: CDCA, bilirubin or GW4064
Mate1 = assay: Renal Mate1 protein expression in treated rats; assay type: in vivo, rat; conditions: 14 days: CDCA 180 mg/kg qd oral
Oct1 = Oct1 (Rattus norvegicus, UniProt Q63089); assay: in vitro; conditions: probe metformin (100 μmol/L)
[9] = endogenous thiamine; BDL rats
[10] = thiamine 20 μg/mL perfusion
Oct2 = assay type: in vivo, rat; conditions: stigmasterol 200 mg/kg qd plus CDCA 180 mg/kg qd oral, 14 days
FXR [11] = target: T2, FXR; assay type: cell-based; conditions: HepG2 cell
[12] = assay type: in vivo, rat; conditions: stigmasterol 200 mg/kg qd plus CDCA 180 mg/kg qd oral, 14 days
Oct3 = target: T3, Oct3 (Rattus norvegicus, UniProt O88446); conditions: estradiol 1 μmol/L with metformin 50 μg/mL; Sham rats
T3 sequence (O88446 1-551): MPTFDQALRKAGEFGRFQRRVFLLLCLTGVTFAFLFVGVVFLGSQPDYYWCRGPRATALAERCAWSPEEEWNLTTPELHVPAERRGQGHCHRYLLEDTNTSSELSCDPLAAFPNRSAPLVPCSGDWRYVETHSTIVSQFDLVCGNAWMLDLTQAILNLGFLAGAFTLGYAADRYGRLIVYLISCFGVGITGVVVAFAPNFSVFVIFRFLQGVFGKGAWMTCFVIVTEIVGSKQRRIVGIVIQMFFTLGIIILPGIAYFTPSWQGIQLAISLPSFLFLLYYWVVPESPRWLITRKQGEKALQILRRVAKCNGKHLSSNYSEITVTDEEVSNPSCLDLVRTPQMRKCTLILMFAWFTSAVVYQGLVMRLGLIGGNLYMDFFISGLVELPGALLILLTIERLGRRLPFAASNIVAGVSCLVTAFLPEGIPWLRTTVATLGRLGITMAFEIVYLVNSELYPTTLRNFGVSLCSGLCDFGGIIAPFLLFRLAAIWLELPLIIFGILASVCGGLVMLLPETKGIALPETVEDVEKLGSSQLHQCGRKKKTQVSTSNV

FXR protein = FXR protein expression in HK-2 cells; assay type: cell-based, human
[13] = oral metformin 40 mg/kg
rat kidney slices = assay: Uptake of metformin by precision-cut kidney slices; assay type: in vitro ADME; conditions: metformin 50 μg/mL, 15 min, 37 °C; slices from BDL rats
[14] = CON rats of CDCA study (Table S5)

Sequence of Oct1 (Q63089 whole entry): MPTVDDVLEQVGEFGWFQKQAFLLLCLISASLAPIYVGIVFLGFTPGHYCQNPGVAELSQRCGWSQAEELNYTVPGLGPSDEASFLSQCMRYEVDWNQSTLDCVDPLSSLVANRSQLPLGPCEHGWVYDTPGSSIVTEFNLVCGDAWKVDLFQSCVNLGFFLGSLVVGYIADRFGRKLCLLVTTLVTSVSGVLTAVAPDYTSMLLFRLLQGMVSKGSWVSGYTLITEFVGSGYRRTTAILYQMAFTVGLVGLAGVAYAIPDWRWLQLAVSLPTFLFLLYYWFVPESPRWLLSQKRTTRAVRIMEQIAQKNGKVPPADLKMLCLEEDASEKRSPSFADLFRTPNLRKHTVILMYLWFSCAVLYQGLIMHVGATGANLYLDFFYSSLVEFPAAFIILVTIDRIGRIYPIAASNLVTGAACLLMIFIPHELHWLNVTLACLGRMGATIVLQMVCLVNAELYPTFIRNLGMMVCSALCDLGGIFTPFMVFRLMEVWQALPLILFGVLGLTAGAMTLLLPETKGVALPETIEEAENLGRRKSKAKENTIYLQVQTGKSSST

In vivo hepatic uptake clearance of metformin with corticosterone (Oct2/3 [2]): 50 % of CON rats
SMILES: C[C@]12C[C@H](O)[C@H]3[C@@H](CCC4=CC(=O)CC[C@@]43C)[C@@H]1CC[C@@H]2C(=O)CO [corticosterone]
Intestinal absorption (Peff) of metformin with inhibitor (Oct2/3 [1]; corticosterone 4 μmol/L with metformin 50 μg/mL): 60 % of control rats | Effect on Peff values of thiamine (Oct2/3 [1]; corticosterone 4 μmol/L with thiamine 20 μg/mL): significantly decrease

SMILES: C[C@H](CCC(=O)NCC(=O)O)[C@H]1CC[C@H]2[C@@H]3[C@H](O)C[C@@H]4C[C@H](O)CC[C@]4(C)[C@H]3C[C@H](O)[C@]12C [GCA, Glycocholic acid]
Expressions of OCT2 protein, 5 bile salts tested (OCT2 protein [3]): only CDCA remarkably induces

Expressions of FGF19 mRNA (FXR [4]; MCA): slight inhibits | Expressions of SHP mRNA (FXR [4]; MCA): significantly downregulates
SMILES: C[C@H](CCC(=O)NCC(=O)O)[C@H]1CC[C@H]2[C@@H]3[C@@H](O)[C@@H](O)[C@@H]4C[C@H](O)CC[C@]4(C)[C@H]3CC[C@]12C [MCA, glycine-β-muricholic acid]
Effect on induction of OCT2 protein by bilirubin, CDCA and GW4064 (OCT2 protein [3]; MCA 100 μmol/L): remarkably attenuated | Effect on downregulation of Oct1 protein by CDCA, bilirubin and GW4064 (Oct1 protein [5]; MCA): remarkably attenuated | Effect on decreases in OCT1 by CDCA, bilirubin and GW4064 (OCT1 protein [6]; MCA): remarkably reversed | Effect on increase of OCT2 protein by CDCA, bilirubin and GW4064 (OCT2 protein [7]; MCA 100 μmol/L): reversed | Effect on upregulation of Oct2 protein by CDCA, bilirubin and GW4064 (Oct2 protein [8]; MCA): remarkably attenuated

SMILES: C[C@H](CCC(=O)O)[C@H]1CC[C@H]2[C@@H]3[C@H](O)C[C@@H]4C[C@H](O)CC[C@]4(C)[C@H]3CC[C@]12C [CDCA, chenodeoxycholic acid]
Concentration-dependent effect on expressions of OCT2 (OCT2 protein [3]; CDCA 25, 50, 100 μmol/L, bilirubin 10, 25, 50 μmol/L): concentration-dependently increase | Expressions of OCT2 protein, 5 bile salts tested (OCT2 protein [3]): remarkably induces | Expressions of OCT2 protein by FXR agonists (OCT2 protein [3]): induce expressions of OCT2 protein | Expressions of renal Mate1 protein in treated rats (Mate1): unaltered | Expressions of Oct1 protein (Oct1 protein [5]): downregulate expressions of Oct1 protein | Concentration-dependent effect on expressions of OCT1 protein (OCT1 protein [6]): concentration-dependently downregulate | Expressions of OCT2 protein by FXR agonists (OCT2 protein [7]): increase expressions of OCT2 protein | Expressions of Oct2 protein (Oct2 protein [8]): upregulate expressions of Oct2 protein

SMILES: C[C@H](CCC(=O)O)[C@H]1CC[C@H]2[C@@H]3[C@H](O)C[C@@H]4C[C@H](O)CC[C@]4(C)[C@H]3C[C@H](O)[C@]12C [CA, Cholic acid]
Expressions of OCT2 protein, 5 bile salts tested (OCT2 protein [3]): only CDCA remarkably induces

inhibition at 1.5 min, 20 μmol/L (Oct1; primary hepatocytes from BDL rats): 25.2% | inhibition at 1.5 min, 20 μmol/L (Oct1; primary hepatocytes from Sham rats): 58.7%
SMILES: NCCc1ccc(O)c(O)c1 [dopamine]

Urinary excreted amount of thiamine during 6 h, BDL relative to Sham [9]: 187 % of Sham rats | Peff values of thiamine in BDL rats vs Sham [10]: significantly decrease
SMILES: Cc1ncc(C[n+]2csc(CCO)c2C)c(N)n1 [thiamine]

Effect on upregulation of SHP and FGF19 mRNA by CDCA (FXR [11]; co-administration of stigmasterol with CDCA): significantly reversed | mRNA expressions of SHP and FGF19, stigmasterol alone (FXR [11]; stigmasterol 100 μmol/L): little affects | Effect on CDCA-induced increase in levels of blood thiamine [12]: attenuated
SMILES: CC[C@H](/C=C/[C@@H](C)[C@H]1CC[C@H]2[C@@H]3CC=C4C[C@@H](O)CC[C@]4(C)[C@H]3CC[C@]12C)C(C)C [stigmasterol]
Effect on the increased expressions of intestinal Oct2 protein by CDCA (Oct2): attenuates

Effect on Peff of metformin (Oct3): does not affect
SMILES: C[C@]12CC[C@@H]3c4ccc(O)cc4CC[C@H]3[C@@H]1CC[C@@H]2O [estradiol]

SMILES: C[C@H](CCC(=O)O)[C@H]1CC[C@H]2[C@@H]3C[C@H](O)[C@@H]4C[C@H](O)CC[C@]4(C)[C@H]3CC[C@]12C [HDCA, Hyodeoxycholic acid]
Expressions of OCT2 protein, 5 bile salts tested (OCT2 protein [3]): only CDCA remarkably induces

Expressions of SHP and FGF19 mRNA (FXR [4]): significantly upregulate
SMILES: C=CC1=C(C)/C(=C/c2[nH]c(Cc3[nH]c(/C=C4\NC(=O)C(C)=C4C=C)c(C)c3CCC(=O)O)c(CCC(=O)O)c2C)NC1=O [bilirubin]
Expressions of FXR protein (FXR protein): can induce | Expressions of Oct1 protein (Oct1 protein [5]): downregulate expressions of Oct1 protein | Concentration-dependent effect on expressions of OCT1 protein (OCT1 protein [6]): concentration-dependently downregulate | Expressions of OCT2 protein by FXR agonists (OCT2 protein [7]): increase expressions of OCT2 protein | Expressions of Oct2 protein (Oct2 protein [8]): upregulate expressions of Oct2 protein

AUC ([13]; CDCA-treated rats (Table S5)): 906.85 ± 52.16 µg·min/mL | Cmax ([13]; CDCA-treated rats (Table S5)): 4360 ± 380 ng/mL | AUC [13, 14]: 707.20 ± 30.01 µg·min/mL | Cmax [13, 14]: 3190 ± 120 ng/mL | Uptake of metformin in renal slice, BDL vs Sham (rat kidney slices): significantly increases | V1 (BDL rat, same value as Sham): 102.99 mL | V1 (Sham rat, 250 g, estimated from original data): 102.99 ^j mL
SMILES: CN(C)C(=N)N=C(N)N [metformin]

SMILES: CC(C)c1onc(-c2c(Cl)cccc2Cl)c1COc1ccc(/C=C/c2cccc(C(=O)O)c2)c(Cl)c1 [GW4064]
Expressions of OCT2 protein by FXR agonists (OCT2 protein [3]): induce expressions of OCT2 protein | Expressions of Oct1 protein (Oct1 protein [5]): downregulate expressions of Oct1 protein | Expressions of OCT1 protein (OCT1 protein [6]; GW4064): also downregulates | Expressions of OCT2 protein by FXR agonists (OCT2 protein [7]): increase expressions of OCT2 protein | Expressions of Oct2 protein (Oct2 protein [8]): upregulate expressions of Oct2 protein

SMILES: C[C@H](CCC(=O)O)[C@H]1CC[C@H]2[C@@H]3CC[C@@H]4C[C@H](O)CC[C@]4(C)[C@H]3C[C@H](O)[C@]12C [DCA, Eeoxycholic acid]
Expressions of OCT2 protein, 5 bile salts tested (OCT2 protein [3]): only CDCA remarkably induces
